Activity calls are given as the source filed them.
What was measured:
Caov-4 = test: Growth inhibition of human Caov4 cells incubated for 48 hrs by MTT assay; type: functional, cell-based
Caov-3 cell line = test: Growth inhibition of human Caov3 cells incubated for 48 hrs by MTT assay; type: functional, cell-based
Homo sapiens = species: Homo sapiens; test: Growth inhibition of human ES2 cells incubated for 48 hrs by MTT assay; type: functional

Measured: growth inhibition (GI)

Fc1ccc(-n2cc(COCc3ccccc3S)nn2)c(F)c1
active: all assays above

Source: ChEMBL document CHEMBL4346695, “Thiophenol-formaldehyde triazole causes apoptosis induction in ovary cancer cells and prevents tumor growth formation in mice model” (2019)
